The structures appear in SMILES notation.

One assay has as its system Escherichia coli (ATCC25922) or Staphylococcus aureus (ATCC25923). As to the kind of experiment: Antibacterial MIC, microdilution method in Mueller-Hinton medium. In kind it is cell-based. As to conditions: Escherichia coli, 18 h, MIC in E. coli or S. aureus; two-fold serial dilutions 64 to 0.5 μg/ml in duplicate; 18 hours of incubation at 35° C.; read-out: Potency (MIC). In short, it runs like this: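 Two-fold serial dilutions from 64 to 0.5 μg/ml, in duplicate, by broth microdilution in Mueller-Hinton medium (NCCLS M7-A5). MIC taken as the lowest concentration preventing visible growth after 18 h at 35° C.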
As to `COC(=O)CC(=O)Nc1ccc(Nc2nc(N3C[C@H](N)C[C@H](N)C3)nc(N3C[C@H](N)C[C@H](N)C3)n2)cc1O` [N-{4-[4,6-Bis-((3R,5S)-3,5-diamino-piperidin-1-yl)-[1,3,5]triazin-2-ylamino]-2-hydroxy-phenyl}-malonamic acid methylester], the minimal inhibitory concentration (MIC) is above 64 mg/L.

Regarding `Cl.N[C@@H]1C[C@H](N)CN(c2nc(N3C[C@H](N)C[C@H](N)C3)nc(-n3cnc4ccccc43)n2)C1` [1-(4,6-Bis-((3R,5S)-3,5-diamino-piperidin-1-yl)-[1,3,5]triazin-2-yl)-1H-benzoimidazole], the MIC is above 64 mg/L.

`Cl.N[C@@H]1C[C@H](N)CN(c2nc(NCc3ccco3)nc(N3C[C@H](N)C[C@H](N)C3)n2)C1` [N-furan-2-ylmethyl-4,6-Bis-((3R,5S)-3,5-diamino-piperidin-1-yl)-[1,3,5]triazine-2-amine]: the MIC was above 64 mg/L.

For the molecule `Cl.N[C@@H]1C[C@H](N)CN(c2nc(NNc3cc(Cl)ccc3Cl)nc(N3C[C@H](N)C[C@H](N)C3)n2)C1` [N-(4,6-Bis-((3R,5S)-3,5-diamino-piperidin-1-yl)-[1,3,5]triazin-2-yl)-N′-(2,5-Dichloro-phenyl)-hydrazine], the MIC was below 64 mg/L.

For the molecule `CC(C)C(=O)Nc1ccc(Nc2nc(N3C[C@H](N)C[C@H](N)C3)nc(N3C[C@H](N)C[C@H](N)C3)n2)cc1O` [N-(3-hydroxy-4-isobutyrylamino-phenyl)-4,6-Bis-((3R,5S)-3,5-diamino-piperidin-1-yl)-[1,3,5]triazine-2-amine], the minimal inhibitory concentration (MIC) is above 64 mg/L.

`Cc1cc(=O)oc2cc(Nc3nc(N4C[C@H](N)C[C@H](N)C4)nc(N4CCC[C@@H](O)C4)n3)ccc12` [7-[4-((3R,5S)-3,5-Diamino-piperidin-1-yl)-6-((R)-3-hydroxy-piperidin-1-yl)-[1,3,5]triazin-2-ylamino]-4-methyl-chromen-2-one]: the MIC was below 64 mg/L.

Turning to `CC(C)(C)C(=O)Nc1ccc(S(=O)(=O)Nc2ccc(Nc3nc(N4C[C@H](N)C[C@H](N)C4)nc(N4C[C@H](N)C[C@H](N)C4)n3)cc2O)cc1.Cl` [N-{4-[4-(2,2-dimethyl-propionylamino)-benzenesulfonylamino]-3-hydroxy-phenyl}-4,6-Bis-((3R,5S)-3,5-diamino-piperidin-1-yl)-[1,3,5]triazine-2-amine], the MIC was above 64 mg/L.

Staying with this assay, now noted: Escherichia coli, 18 h, read-out: Potency (MIC).
As to `N[C@@H]1C[C@H](N)CN(c2nc(Nc3ccc(C(=O)Nc4cccc(CO)c4)c(O)c3)nc(N3C[C@H](N)C[C@H](N)C3)n2)C1` [N-[3-hydroxy-4-(3-hydroxymethyl-phenylcarbamoyl)-phenyl]-4,6-Bis-((3R,5S)-3,5-diamino-piperidin-1-yl)-[1,3,5]triazine-2-amine], the minimum inhibitory concentration (MIC) was below 64 mg/L.

As for `COc1ccc(O)c(C(=O)Nc2ccc(Nc3nc(N4C[C@H](N)C[C@H](N)C4)nc(N4C[C@H](N)C[C@H](N)C4)n3)cc2)c1` [N-[4-(2-hydroxy-5-methoxy-benzoylamino)-phenyl]-4,6-Bis-((3R,5S)-3,5-diamino-piperidin-1-yl)-[1,3,5]triazine-2-amine], the MIC is below 64 mg/L.

Consider `N[C@@H]1C[C@H](N)CN(c2nc(Nc3ccc(NC(=O)C(=O)c4c[nH]c5ccccc45)c(O)c3)nc(N3C[C@H](N)C[C@H](N)C3)n2)C1` [N-{3-hydroxy-4-[2-(1H-indol-3-yl)-2-oxo-acetylamino]-phenyl}-4,6-Bis-((3R,5S)-3,5-diamino-piperidin-1-yl)-[1,3,5]triazine-2-amine], for which the minimal inhibitory concentration (MIC) was below 16 mg/L.

Take `N[C@@H]1C[C@H](N)CN(c2nc(Nc3ccc(C(=O)CC(=O)Nc4ccc(Cl)cc4)cc3)nc(N3C[C@H](N)C[C@H](N)C3)n2)C1` [N-{4-[2-(4-chloro-phenylcarbamoyl)-acetyl]-phenyl}-4,6-Bis-((3R,5S)-3,5-diamino-piperidin-1-yl)-[1,3,5]triazine-2-amine]: the MIC was below 16 mg/L.

As to `COc1cccc(C(=O)Nc2ccc(Nc3nc(N4C[C@H](N)C[C@H](N)C4)nc(N4C[C@H](N)C[C@H](N)C4)n3)cc2Cl)c1O` [N-[3-chloro-4-(2-hydroxy-3-methoxy-benzoylamino)-phenyl]-4,6-Bis-((3R,5S)-3,5-diamino-piperidin-1-yl)-[1,3,5]triazine-2-amine], the MIC was below 16 mg/L.

For `NC[C@@H]1C[C@H](N)CN1c1nc(Nc2ccc(C(=O)CC(=O)Nc3ccc(SC(F)(F)F)cc3)cc2)nc(N2C[C@H](N)C[C@H](N)C2)n1` [3-{4-[4-((2S,4S)-4-Amino-2-aminomethyl-pyrrolidin-1-yl)-6-((3R,5S)-3,5-diamino-piperidin-1-yl)-[1,3,5]triazin-2-ylamino]-phenyl}-3-oxo-N-(4-trifluoromethylsulfanyl-phenyl)-propionamide], the MIC is below 16 mg/L.

As for `N[C@@H]1C[C@H](N)CN(c2nc(Nc3ccc(NC(=O)c4c(O)ccc5ccccc45)cc3)nc(N3C[C@H](N)C[C@H](N)C3)n2)C1` [N-{4-[(2-hydroxy-naphthalene-1-carbonyl)-amino]-phenyl}-4,6-Bis-((3R,5S)-3,5-diamino-piperidin-1-yl)-[1,3,5]triazine-2-amine], the MIC was below 16 mg/L.

As for `N[C@@H]1C[C@H](N)CN(c2nc(NCCCn3ccnc3)nc(N3C[C@H](N)C[C@H](N)C3)n2)C1` [N-(3-imidazol-1-yl-propyl)-4,6-Bis-((3R,5S)-3,5-diamino-piperidin-1-yl)-[1,3,5]triazine-2-amine], the MIC was above 64 mg/L.

Regarding `N[C@@H]1C[C@H](N)CN(c2nc(Nc3ccc(C(=O)Nc4ccc(-c5ccccc5)cc4)c(O)c3)nc(N3C[C@H](N)C[C@H](N)C3)n2)C1` [N-[4-(biphenyl-4-ylcarbamoyl)-3-hydroxy-phenyl]-4,6-Bis-((3R,5S)-3,5-diamino-piperidin-1-yl)-[1,3,5]triazine-2-amine], the MIC is below 16 mg/L.

Regarding `N[C@@H]1C[C@H](N)CN(c2nc(NNc3cccc(C(F)(F)F)c3)nc(N3C[C@H](N)C[C@H](N)C3)n2)C1` [N-(4,6-Bis-((3R,5S)-3,5-diamino-piperidin-1-yl)-[1,3,5]triazin-2-yl)-N′-(3-Trifluoromethyl-phenyl)-hydrazine], the MIC was below 64 mg/L.

On to `CC(=O)Nc1ccc(Nc2nc(N3C[C@H](N)C[C@H](N)C3)nc(N3C[C@H](N)C[C@H](N)C3)n2)cc1O` [N-(4-acetylamino-3-hydroxy-phenyl)-4,6-Bis-((3R,5S)-3,5-diamino-piperidin-1-yl)-[1,3,5]triazine-2-amine], for which the minimum inhibitory concentration (MIC) is above 64 mg/L.

Consider `N[C@@H]1C[C@H](N)CN(c2nc(Nc3ccc(C(=O)N4CCOCC4)c(O)c3)nc(N3C[C@H](N)C[C@H](N)C3)n2)C1` [N-[3-hydroxy-4-(morpholine-4-carbonyl)-phenyl]-4,6-Bis-((3R,5S)-3,5-diamino-piperidin-1-yl)-[1,3,5]triazine-2-amine], for which the MIC is above 64 mg/L.

`CN(c1nc(N2C[C@H](N)C[C@H](N)C2)nc(N2C[C@H](N)C[C@H](N)C2)n1)C1CCN(Cc2ccccc2)C1` (stereo partly drawn) [N-(1-Benzyl-pyrrolidin-3-yl)-N-methyl-4,6-Bis-((3R,5S)-3,5-diamino-piperidin-1-yl)-[1,3,5]triazine-2-amine]: the MIC is below 64 mg/L.

In the case of `N[C@@H]1C[C@H](N)CN(c2nc(Nc3ccc4c(c3)-c3ccccc3C4=O)nc(N3C[C@@H](O)[C@@H](O)C3)n2)C1` [3-[4-((3S,5R)-3,5-Diamino-piperidin-1-yl)-6-((3R,4S)-3,4-dihydroxy-pyrrolidin-1-yl)-[1,3,5]triazin-2-ylamino}-fluoren-9-one], the MIC was above 64 mg/L.

Regarding `Cc1cc(Nc2nc(N3C[C@H](N)C[C@H](N)C3)nc(N3C[C@H](N)C[C@H](N)C3)n2)ccc1[N+](=O)[O-]` [N-(3-methyl-4-nitro-phenyl)-4,6-Bis-((3R,5S)-3,5-diamino-piperidin-1-yl)-[1,3,5]triazine-2-amine], the MIC was below 64 mg/L.

Regarding `CC(=O)Nc1ccc(Nc2nc(N3C[C@H](N)C[C@H](N)C3)nc(N3C[C@H](N)C[C@H](N)C3)n2)cc1` [drawing 485, N-(4-acetylamino-phenyl)-4,6-Bis-((3R,5S)-3,5-diamino-piperidin-1-yl)-[1,3,5]triazine-2-amine], the MIC was below 64 mg/L.

Regarding `Cc1cc(C)cc(Nc2nc(N3C[C@H](N)C[C@H](N)C3)nc(N3C[C@H](N)C[C@H](N)C3)n2)c1` [N-(3,5-dimethyl-phenyl)-4,6-Bis-((3R,5S)-3,5-diamino-piperidin-1-yl)-[1,3,5]triazine-2-amine], the minimum inhibitory concentration (MIC) was below 64 mg/L.

Staying with this assay, now noted: MIC in E. coli or S. aureus; two-fold serial dilutions 64 to 0.5 μg/ml in duplicate; 18 hours of incubation at 35° C.
Consider `NC[C@@H]1C[C@H](N)CN1c1nc(Nc2ccc(C(=O)CC(=O)Nc3ccc(F)c(F)c3)cc2)nc(N2C[C@H](N)C[C@H](N)C2)n1` [3-{4-[4-((2S,4S)-4-Amino-2-aminomethyl-pyrrolidin-1-yl)-6-((3R,5S)-3,5-diamino-piperidin-1-yl)-[1,3,5]triazin-2-ylamino]-phenyl}-N-(3,4-difluoro-phenyl)-3-oxco-propionamide], for which the “Potency (MIC)” value is “+ (+ means MIC<64 μg/ml in E. coli or S. aureus)”.

For the molecule `NC[C@@H]1CN(c2nc(Nc3ccc(S(=O)(=O)Nc4ccc5cn[nH]c5c4)cc3)nc(N3C[C@H](N)C[C@H](N)C3)n2)CC[C@@H]1O` [4-[4-((3R,4S)-3-Aminomethyl-4-hydroxy-piperidin-1-yl)-6-((3RE,5S)-3,5-diamino-piperidin-1-yl)-[1,3,5]triazin-2-ylamino]-N-(1H-indazol-6-yl)-benzenesulfonamide], the “Potency (MIC)” value is on record as “− (− means MIC>64 μg/ml in E. coli or S. aureus)”.

With `Cl.O=C(Oc1ccccc1)c1ccc(Nc2nc(N3CCCCC3)nc(N3CCCCC3)n2)cc1O` [drawing 569, 4-[4,6-Bis-((3R,5S)-3,5-diamino-piperidin-1-yl)-[1,3,5]triazin-2-ylamino]-2-hydroxy-benzoic acidphenyl ester], the “Potency (MIC)” value is “++ (++ means MIC<16 μg/ml in E. coli or S. aureus)”.
